Experimental data taken from the supplement of paper PMC10307832.

How the values were obtained:
Experiment in all cases: relative viability (nuclei count vs DMSO), 5 days (fraction); higher = more cells survive
Carfilzomib + AZD7762 = compound: CC(C)C[C@H](NC(=O)[C@H](CCc1ccccc1)NC(=O)CN1CCOCC1)C(=O)N[C@@H](Cc1ccccc1)C(=O)N[C@@H](CC(C)C)C(=O)[C@@]1(C)CO1 [Carfilzomib] + NC(=O)Nc1cc(-c2cccc(F)c2)sc1C(=O)N[C@H]1CCCNC1 [AZD7762] (partner 0.2 µM)
In short: (§1)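 Lung cancer cell lines in 1536-well plates got either a single drug or a fixed anchor-drug dose together with five library-drug doses (not always all listed) in √10 steps, by pin tool, on the day after seeding. Nuclei were counted after 5 days, and relative viability is the treated-to-vehicle ratio of nuclei counts. Values are medians of duplicate plates.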

Carfilzomib + Dasatinib = compound: CC(C)C[C@H](NC(=O)[C@H](CCc1ccccc1)NC(=O)CN1CCOCC1)C(=O)N[C@@H](Cc1ccccc1)C(=O)N[C@@H](CC(C)C)C(=O)[C@@]1(C)CO1 [Carfilzomib] + Cc1nc(Nc2ncc(C(=O)Nc3c(C)cccc3Cl)s2)cc(N2CCN(CCO)CC2)n1 [Dasatinib] (partner 0.075 µM)
In short: as §1

Crizotinib + Pictilisib = compound: C[C@@H](Oc1cc(-c2cnn(C3CCNCC3)c2)cnc1N)c1c(Cl)ccc(F)c1Cl [Crizotinib] + CS(=O)(=O)N1CCN(Cc2cc3nc(-c4cccc5[nH]ncc45)nc(N4CCOCC4)c3s2)CC1 [Pictilisib] (partner 1 µM)
In short: as §1

Crizotinib + Navitoclax = compound: C[C@@H](Oc1cc(-c2cnn(C3CCNCC3)c2)cnc1N)c1c(Cl)ccc(F)c1Cl [Crizotinib] + CC1(C)CCC(c2ccc(Cl)cc2)=C(CN2CCN(c3ccc(C(=O)NS(=O)(=O)c4ccc(N[C@H](CCN5CCOCC5)CSc5ccccc5)c(S(=O)(=O)C(F)(F)F)c4)cc3)CC2)C1 [Navitoclax] (partner 0.5 µM)
In short: as §1

Cell Line	relative viability (Carfilzomib + AZD7762; first compound 0.001 µM)	relative viability (Carfilzomib + AZD7762; first compound 0.003162 µM)	relative viability (Carfilzomib + AZD7762; first compound 0.01 µM)	relative viability (Carfilzomib + AZD7762; first compound 0.03162 µM)	relative viability (Carfilzomib + AZD7762; first compound 0.1 µM)	relative viability (Carfilzomib + Dasatinib; first compound 0.001 µM)	relative viability (Carfilzomib + Dasatinib; first compound 0.003162 µM)	relative viability (Carfilzomib + Dasatinib; first compound 0.01 µM)	relative viability (Carfilzomib + Dasatinib; first compound 0.03162 µM)	relative viability (Carfilzomib + Dasatinib; first compound 0.1 µM)	relative viability (Crizotinib + Pictilisib; first compound 0.01 µM)	relative viability (Crizotinib + Pictilisib; first compound 0.03162 µM)	relative viability (Crizotinib + Pictilisib; first compound 0.1 µM)	relative viability (Crizotinib + Pictilisib; first compound 0.3162 µM)	relative viability (Crizotinib + Pictilisib; first compound 1 µM)	relative viability (Crizotinib + Navitoclax; first compound 0.01 µM)	relative viability (Crizotinib + Navitoclax; first compound 0.03162 µM)	relative viability (Crizotinib + Navitoclax; first compound 0.1 µM)	relative viability (Crizotinib + Navitoclax; first compound 0.3162 µM)	relative viability (Crizotinib + Navitoclax; first compound 1 µM)
201T	0.67	0.574	0.626	0.591	0.461	0.51	0.61	0.643	0.593	0.522	0.65	0.74	0.723	0.648	0.678	1.2	1.18	1.16	1.19	1.21
A549											0.558	0.439	0.521	0.543	0.53	1.22	1.15	1.19	1.17	1.18
A-427	0.725	0.82	0.696	0.527	0.173	0.776	0.853	0.597	0.0935	0.107	0.529	0.655	0.668		0.675	0.95	1.03	1		1.02
ABC-1		0.786	0.506		1.01	0.521	0.504	0.196	0.172	0.324	0.54	0.781	0.588	0.743	0.728					
BEN	0.717	0.619	0.657	0.59	0.409	0.294	0.328	0.299	0.298	0.203	0.608	0.492	0.52	0.581	0.576	0.0724	0.0669	0.0752	0.0683	0.0583
CAL-12T	0.607	0.719	0.787	0.586	0.26	0.321	0.484	0.509	0.174	0.108	0.345	0.472	0.466		0.355	1.19	1.22	1.06	1.18	1.21
COR-L23						0.478	0.523	0.425	0.0606	0.0642	0.695	0.747	0.705	0.771	0.775	0.952	0.993	1.1	0.937	1.03
COR-L 105						0.409	0.393	0.319	0.235	0.167	0.353	0.386	0.39	0.354	0.403	0.771		0.908	0.871	0.76
Calu-6											0.881	0.942		0.937	0.865	0.8	0.766	0.836	0.774	0.735
ChaGo-K-1	0.813	0.898	0.855	0.542	0.152	0.546	0.591	0.585	0.335	0.203	0.736	0.651	0.825		0.567	0.965	0.922	1.1		0.854
EBC-1											0.378	0.215	0.159	0.202	0.198	0.49	0.344	0.12	0.152	0.16
EKVX	0.318	0.782	0.756		0.761	0.49	0.342	0.597	0.478	0.214	0.406	0.419	0.463	0.453	0.47	0.879	1	0.95	0.871	0.961
EMC-BAC-2	1.13	1.22	1.22	1.06	0.716	0.327	0.363	0.35	0.256	0.256	0.514	0.536	0.527	0.305	0.52	1.13	1.19	1.13	1.12	1.15
EPLC-272H	0.195	0.253	0.209	0.159	0.0687	0.379	0.407	0.215	0.0812	0.0631	0.287	0.365	0.327	0.3	0.299		1.1	1.26	1.1	1.15
H3255	0.849	0.982	1.13	0.795	0.237	0.356	0.431	0.486	0.339	0.355	0.36	0.486	0.533	0.468	0.456	0.53	0.499	0.521	0.484	0.487
HARA	0.454	0.232	0.398	0.18	0.146	0.324	0.312	0.32	0.0493	0.0578	0.351	0.441	0.262	0.511	0.46	1.13	1.08	1.13	1.13	1.1
HCC-15	1.12	1.29	1.31	1.12	0.453	0.609	0.654	0.673	0.3	0.0867	0.622	0.69	0.722	0.391	0.687	0.644	0.736	0.704	0.664	0.76
HCC-44	1.01	1.02	1.03	0.988	0.716						0.464	0.578	0.538	0.665	0.503	0.838	0.969	0.963	1.01	1.05
HCC-78	0.505	0.772	0.789	0.492	0.311	0.228	0.459	0.323	0.435	0.2	0.204	0.206	0.205	0.167	0.204	0.774	0.738	0.749	0.685	0.628
HCC-366	0.231	0.276	0.251	0.419	0.212	0.624	0.727	0.629	0.705	0.173	0.101	0.141	0.183	0.11	0.17	0.991	1.11	1.06		1.17
IA-LM											0.34	0.331	0.353	0.343	0.305	0.71	0.759	0.792	0.796	0.842

Cell Line	relative viability (Carfilzomib + AZD7762; first compound 0.001 µM)	relative viability (Carfilzomib + AZD7762; first compound 0.003162 µM)	relative viability (Carfilzomib + AZD7762; first compound 0.01 µM)	relative viability (Carfilzomib + AZD7762; first compound 0.03162 µM)	relative viability (Carfilzomib + AZD7762; first compound 0.1 µM)	relative viability (Carfilzomib + Dasatinib; first compound 0.001 µM)	relative viability (Carfilzomib + Dasatinib; first compound 0.003162 µM)	relative viability (Carfilzomib + Dasatinib; first compound 0.01 µM)	relative viability (Carfilzomib + Dasatinib; first compound 0.03162 µM)	relative viability (Carfilzomib + Dasatinib; first compound 0.1 µM)	relative viability (Crizotinib + Pictilisib; first compound 0.01 µM)	relative viability (Crizotinib + Pictilisib; first compound 0.03162 µM)	relative viability (Crizotinib + Pictilisib; first compound 0.1 µM)	relative viability (Crizotinib + Pictilisib; first compound 0.3162 µM)	relative viability (Crizotinib + Pictilisib; first compound 1 µM)	relative viability (Crizotinib + Navitoclax; first compound 0.01 µM)	relative viability (Crizotinib + Navitoclax; first compound 0.03162 µM)	relative viability (Crizotinib + Navitoclax; first compound 0.1 µM)	relative viability (Crizotinib + Navitoclax; first compound 0.3162 µM)	relative viability (Crizotinib + Navitoclax; first compound 1 µM)
LCLC-103H	0.767	0.849	0.759	0.778	0.402	0.343	0.503	0.518	0.362	0.299	0.547	0.65	0.669	0.583	0.576					
NCI-H358	0.449	0.615	0.63	0.255	0.226	0.171	0.152	0.2	0.0675	0.0836	0.338	0.354	0.35	0.27	0.325					
NCI-H520						0.204	0.17	0.168	0.188	0.213	0.261	0.333	0.303	0.319	0.251	1.01	1.05	1.31		1.12
NCI-H522	0.782	0.901	0.925	0.428	0.337	0.872	0.946	0.885	0.398	0.433										
NCI-H650	0.862	1.1	0.964	0.88	0.23		0.515	0.457	0.359	0.164	0.883	0.893	0.865	0.799	0.783					
NCI-H661						0.911	1.07	1.03	0.72	0.172	0.379	0.349	0.383	0.378	0.36					
NCI-H1299											0.827	0.647	0.728	0.718	0.909	1.04	1.02	1.01	1.07	1.01
NCI-H1563						0.431	0.463	0.488	0.505	0.367	0.527	0.594	0.628	0.555	0.652					
NCI-H1623						0.509	0.571	0.599	0.271	0.642										
NCI-H1648	0.657	0.621	0.603	0.407	0.268															
NCI-H1650						0.282	0.304	0.207	0.165	0.172	0.516	0.584	0.573	0.535	0.559	1.1	1.15	1.08	1.2	1.13
NCI-H1703	0.121	0.168	0.128	0.107	0.0623						0.286	0.224	0.236	0.273	0.284	1.03	0.933			1.12
NCI-H2009						0.293	0.386	0.3	0.113	0.0713	0.607	0.83	0.799	0.688	0.782	1.1	1.16	1.17	1.21	1.22
NCI-H2023						0.569	0.698	0.59	0.181	0.082	0.225	0.232	0.189	0.192	0.217	0.98	0.985	0.994	0.932	
NCI-H2228						0.539	0.526	0.442	0.0721	0.0819	0.392	0.308	0.362	0.164	0.0922	1.01	1.2	0.648	0.996	0.409
NCI-H2342	0.462	0.513	0.689	0.609	0.347	0.364	0.32	0.355	0.374	0.321										
SK-LU-1						0.167	0.189	0.236	0.0906	0.117	0.613	0.709	0.557	0.686	0.567	0.829	0.851	0.887	0.938	0.806
SK-MES-1						0.323	0.454	0.409	0.197	0.107	0.402	0.311	0.35	0.299	0.333	1.2	1.29	1.25		1.2
SW 900		0.67	0.226	0.168	0.206	0.561	0.467	0.137	0.141	0.137										
SW 1573						0.653	0.764	0.372	0.0426	0.0643	0.424	0.525	0.558	0.459	0.52	0.683		0.97	0.945	0.932
UMC-11						0.52	0.412	0.415	0.393	0.184	0.753	0.854	0.803	0.161	0.785	0.285	0.308	0.306	0.282	0.365
